Test results as given in patent US20260355154A1, “IMPLANTS, COMPOSITIONS, AND METHODS FOR TREATING RETINAL DISEASES AND DISORDERS” (Osanni Bio, Inc., priority 2024, published 2026).
Like-named read-outs stand apart in the source and are kept apart here.

What was measured:
[1] = tested on: human embryonic stem-cell derived retinal pigmented epithelium (hESC-RPE); test: Drusen in vitro assay: APOE/APOE4 deposition induced by 5% human serum; assay type: cell-based; settings: for minimal effective concentration: Embryonic stem cell, hESC-RPE, 24 h pre-incubation, then 48 h with 5% human serum
Method: (§1) Retinal Pigmented Epithelium Cell Culture: Human embryonic stem-cell derived retinal pigmented epithelium (hESC-RPE) were cultured on Transwell inserts for at least 4 weeks in serum-free XVIVO culture medium. After 4 weeks, polygonal, pigmented monolayers of hESC-RPE were visualized by phase contrast and bright-field microscopy, indicating appropriately matured RPE cells. Drusen assay experiments were performed after the initial 4-week maturation period.
(§2) Drusen Assay: Matured hESC-RPE monolayers were incubated with 5% complement competent human serum (HS) for 48 hours to elicit Drusen formation. After the 48 hour HS incubation period, hESC-RPE monolayers (whole inserts) were fixed with 4% paraformaldehyde for 10 minutes at room temperature. Following fixation, inserts were individually removed from plates and cut out of their holders using a scalpel yielding individual membranes with hESC-RPE monolayers. Membranes were transferred to 24-well plates for storage in phosphate buffered saline with calcium and magnesium (PBS+/+).
Drusen Assay with Atorvastatin Treatment: Matured hESC-RPE inserts were pre-incubated with varying concentrations of atorvastatin (ranging from […]) in both the top and bottom insert compartments for 24 hours in an incubator set at 37 °C with 5% CO2. On the following day, medium was exchanged with fresh culture medium containing atorvastatin and 5% HS and incubated for an additional 48 hours in an incubator set at 37 °C with 5% CO2. After 48 hour incubation period, inserts were fixed and processed for antibody staining.
Fixed membranes were incubated with block solution containing 1% bovine serum albumin (BSA) and 0.1% Triton X in PBS+/+ for 1 hr at room temperature. After the block incubation period, membranes were incubated overnight at 4 °C with primary antibody solution containing 1% BSA and goat anti-APOE4 antibody (1:250) and mouse anti-C5b9 antibody (1:250). On the following day, membranes were washed thrice for 10 min with PBS+/+ and incubated with secondary antibody solution containing 1% BSA and AlexaFluor donkey anti-goat 546 (1:200) and AlexaFluor donkey anti-mouse 488 (1:200) for 1 hr at room temperature in the dark. Following secondary antibody incubation period, membranes were washed thrice for 10 min with PBS+/+ and counterstained with Hoechst solution (1:1000) in PBS+/+ for 10 min at room temperature. Membranes were then transferred to microscope slides and mounted using ProLong Gold anti-fade solution and coverslips. Slides were imaged using a Leica SP8 Scanning Resonant Confocal Microscope using identical settings and laser power. At least 3 fields of view were collected per sample.
Image quantification and figure preparation: Fiji (Image J) software was used for processing all the images. All images were processed with the parameters described below: Contrast adjustment—the value of contrast for the APOE4 channel was set to 90-230 to improve the accuracy of object observation. Thresholding—the cutoff value of the threshold for the APOE4 channel was set as 100 to 255 to identify the pixels as real expressions. Size-Particles with an area larger than 1.5 A.U. were counted as true APOE4 expressions to minimize the likelihood of false positives in the image. Measurements, including deposit counts and the total area, were then exported as a .csv file for analysis. All images were taken in triplicate per treatment. Results are presented as mean±SEM and were graphed using Graph Pad PRISM v6. Statistical significance was established using one-way ANOVA tests followed by Tukey's multiple comparisons test.

[2] = tested on: human embryonic stem-cell derived retinal pigmented epithelium (hESC-RPE); test: Complement activity: C5b-9 immunostaining in human serum-treated hESC-RPE; assay type: cell-based; settings: increasing concentrations of atorvastatin; 5% human serum; FIG. 4
Method: as §1
as §2, with “(PBS+/+). […]” for “(PBS+/+).”
Image quantification and figure preparation: Fiji (Image J) software was used for processing all the images. […] Size-Particles with an area larger than 1.5 A.U. were counted as true APOE4 expressions to minimize the likelihood of false positives in the image. […]

eye = settings: applied topically in the eye; Grant, Toxicology of the Eye; cited from earlier work
[3] = cited from earlier work

Row | Structure (SMILES) | minimal effective concentration ([1]; read-out: concentration from which APOE deposition area decreased (starting at)) | minimal effective concentration ([1]; read-out: concentration from which total counts of APOE deposits decreased (starting at)) | total counts of APOE deposits at higher ATV concentrations ([1]; higher ATV concentrations (above 123 nM), 5% human serum, 48 h) | APOE deposition area at higher ATV concentrations ([1]; higher ATV concentrations (above 370 nM), 5% human serum, 48 h) | APOE deposition (area) ([1]; increasing atorvastatin concentrations, 5% human serum, 48 h) | total counts of APOE deposition ([1]; increasing atorvastatin concentrations, 5% human serum, 48 h, FIG. 3) | expression of APOE4 per field of view ([1]; increasing concentrations of atorvastatin, 5% human serum, FIG. 3) | C5b-9 expression / C5b-9 positive puncta per field of view [2] | eye damage on topical application (eye) | in vivo metabolism ([3]; in vivo, Handbook of Pesticide Toxicology) | excretion ([3]; urine, after oxidation of benzyl alcohol to benzoic acid and conjugation with glucuronic acid) | excretion (minor route) ([3]; urine, to a lesser extent, benzoic acid conjugated with glycine)
1 | CC(C)c1c(C(=O)Nc2ccccc2)c(-c2ccccc2)c(-c2ccc(F)cc2)n1CC[C@@H](O)C[C@@H](O)CC(=O)O [Atorvastatin, atorvastatin] | 0.37 µM | 0.123 µM | nearly complete elimination | nearly complete elimination | reduced APOE deposition dose-dependently | reduced the total counts of APOE deposition dose-dependently | decreased expression of APOE4 | reduces APOE4 and C5b-9 expression | – | – | – | –
2 | O=C(OCc1ccccc1)c1ccccc1 [Benzyl benzoate] | – | – | – | – | – | – | – | – | no damage | hydrolyzed to benzoic acid and benzyl alcohol | excreted in the urine as benzoylglucuronic acid | excreted in the urine as hippuric acid
